Measured values as given in EPA's ToxValDB 9.5 (doi:10.2903/j.efsa.2015.4077).

Assays:
Anas platyrhynchos = conditions: reproductive
Canidae = conditions: chronic; duration: 1 years; oral; Dog Other; organ weight
Apis mellifera = conditions: acute; oral; unspecified; mortality
Colinus virginianus = conditions: acute, oral
Pimephales promelas = conditions: chronic/long-term; duration: 35 days; other
Pontoscolex corethrurus = conditions: acute; duration: 14 days; mortality
Daphnia magna = conditions: chronic/long-term; duration: 21 days
Oncorhynchus mykiss = conditions: acute; duration: 96 hours; mortality
Aphidius rhopalosiphi = assay: LR50; higher = less toxic; conditions: not reported; mortality
Typhlodromus pyri = assay: LR50; higher = less toxic; conditions: not reported; mortality

CC(C)N1C(=O)c2ccccc2NS1(=O)=O [Bentazone]
NOAEL (Anas platyrhynchos): 56 mg/kg-day | NOAEL (Canidae): 13 mg/kg-day | LD50 (Apis mellifera): > 200 µg/piece | LD50 (Rattus norvegicus; acute, M/F): 1640 mg/kg-day | NOAEL (Rattus norvegicus; chronic, duration: 2 years, other): 9 mg/kg-day | NOAEL (Rattus norvegicus; developmental, development): 100 mg/kg-day | NOAEL (Rattus norvegicus; reproduction developmental): 10.3 mg/kg-day | LD50 (Colinus virginianus): 565 mg/kg-day | LC50 (Colinus virginianus; diet): > 500 mg/kg | NOEC (Pimephales promelas): 10 mg/L | LC50 (Pontoscolex corethrurus): > 1000 mg/kg | NOEC (Daphnia magna): > 101 mg/L | LC50 (Oncorhynchus mykiss): > 48.6 µg/mL | LR50 (Aphidius rhopalosiphi): 699 g/ha | LR50 (Typhlodromus pyri): 2800 g/ha
